Test systems include HL-60; M14; A549; HCT-15; SF-268; SNB-19; HCC 2998; TK-10; OVCAR-3; K562; MOLT-4; LOX IMVI; UO-31; 786-0; OVCAR-8; IGROV-1; HOP-62; MDA-MB-231; RXF 393.
What all share (experiment): NCI-60 cell line screen, 48 h

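Cells were grown in 96-well plates and exposed to each compound for 48 hours at five concentrations; endpoints were interpolated linearly between bracketing concentrations, or set to the highest concentration if not reached. GI50 marks 50% less growth.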 The source made the active and inactive calls. No stated cut-off is given here; in the data, active = GI50 up to about 1.1 µM and inactive = higher. Where a SMILES comes first, the peptide text is derived from it. [ ]: non-standard residue; d: D form. The star is where a group is joined. Phe(2-OMe) = COc1ccccc1C[CH](N)C(=O)O; Cbz = O=C(OCc1ccccc1)*; OBn = c1ccc(CO*)cc1

With `CCOC(=O)C12CCCC1(O)N(NC(=O)c1ccccc1)C(C)=C2C(=O)OC` (configuration not stated), the GI50 with HL-60 is > 100 µM (inactive); in the assay on M14, > 100 µM (inactive); in the assay with A549 it was > 100 µM (inactive); in the assay on HCT-15, > 100 µM; in the assay with SF-268, > 100 µM (inactive); with SNB-19, > 100 µM (inactive). For the same compound, the GI50 with HCC 2998, with TK-10, in the assay with OVCAR-3, in the assay with K562, in the assay with MOLT-4 and with LOX IMVI was > 100 µM (inactive) each time. Further, the GI50 in the assay with UO-31, in the assay with 786-0, with OVCAR-8, with IGROV-1 and in the assay on HOP-62 was > 100 µM (inactive) each time.
Take `Cc1c2cnccc2nc2[nH]c3ccncc3c12`: the GI50 in the assay with HL-60 was 19.9 µM (inactive); in the assay on M14 it was 4.5 µM (inactive); with A549, 2.94 µM (inactive); with HCT-15, 3.98 µM; in the assay with MDA-MB-231, 55 µM (inactive); in the assay with SF-268, 2.47 µM (inactive). Moreover, the GI50 in the assay with SNB-19 was 13.7 µM (inactive); in the assay on TK-10, 3.95 µM (inactive); in the assay on OVCAR-3 it was 10.4 µM (inactive); in the assay on K562, 10.8 µM (inactive); in the assay with MOLT-4, 6.31 µM (inactive); in the assay on LOX IMVI it was 2.29 µM (inactive). Besides, the GI50 is 4.08 µM (inactive) in the assay on UO-31; 3.24 µM (inactive) in the assay on 786-0; 6.98 µM (inactive) in the assay on OVCAR-8; 2.85 µM (inactive) with IGROV-1; 2.17 µM (inactive) in the assay with HOP-62.
As to `COc1cc2c(/C=C3/C(=O)Nc4ccc(O)cc43)c(Cl)n(Cc3ccccc3)c2cc1C`, the GI50 in the assay on HL-60 is 0.306 µM (active); in the assay with M14, 0.6 µM (active); in the assay with A549 it was 0.975 µM (active); in the assay on HCT-15, 1.27 µM; in the assay on MDA-MB-231, 6 µM (inactive); in the assay with SF-268, 0.678 µM (active). Moreover, the GI50 in the assay with SNB-19 is 0.596 µM (active); in the assay with TK-10, 3.36 µM (inactive); in the assay with OVCAR-3 it was 0.234 µM (active); in the assay with K562 it was 0.583 µM (active); with MOLT-4 it was 1.13 µM (inactive); with RXF 393, 0.352 µM (active). For the same compound, the GI50 with LOX IMVI is 0.558 µM (active); in the assay on UO-31 it was 3.76 µM (inactive); with 786-0 it was 0.222 µM (active); with OVCAR-8, 1.43 µM (inactive); with IGROV-1 it was 0.682 µM (active).
Consider `N=C(N)NCCCC(NC(=O)c1cccc2c(=O)c3ccccc3[nH]c12)C(=O)O` (configuration not stated), for which the GI50 in the assay on HL-60 is > 100 µM (inactive); in the assay on M14, > 100 µM (inactive); with A549 it was > 100 µM (inactive); in the assay with HCT-15 it was > 100 µM; in the assay on MDA-MB-231, > 100 µM (inactive); in the assay on SF-268 it was > 100 µM (inactive). The GI50 in the assay with SNB-19, in the assay on TK-10, in the assay with OVCAR-3, with K562, with MOLT-4 and with LOX IMVI was > 100 µM (inactive) in each case. In addition, the GI50 in the assay on UO-31, in the assay on 786-0, with OVCAR-8, in the assay on IGROV-1 and in the assay on HOP-62 was > 100 µM (inactive) each time.
In the case of `COC(=O)C(Cc1ccccc1OC)NC(=O)C(CC(=O)OCc1ccccc1)NC(=O)OCc1ccccc1` (configuration not stated) (Cbz-Asp(OBn)-[Phe(2-OMe)]-OMe; configuration not given here), the GI50 with HL-60 is 34.5 µM (inactive); in the assay on M14, > 100 µM (inactive); with A549, 60.3 µM (inactive); with SNB-19, > 100 µM (inactive); in the assay on HCC 2998, > 100 µM (inactive); in the assay with TK-10, > 100 µM (inactive). The GI50 is 61.5 µM (inactive) in the assay on K562; 33.7 µM (inactive) in the assay with MOLT-4; 70.8 µM (inactive) in the assay on RXF 393; 64.6 µM (inactive) in the assay on UO-31; > 100 µM (inactive) in the assay with 786-0; > 100 µM (inactive) with OVCAR-8. Further, the GI50 with IGROV-1 and in the assay with HOP-62 was > 100 µM (inactive) throughout.

(Values after ChEMBL document CHEMBL1201862, “PubChem BioAssay data set” (2004).)
